Measurements taken from patent US20250092086A1, “CELASTROL SALTS, CRYSTALLINE FORMS, AND USES THEREOF” (ERX Pharmaceuticals Inc., priority 2022, published 2025).
Converted amounts (≈) assume the structure as drawn. “Also recorded” adds a separate entry of the source.

Key:
Type in all cases: physicochemical
[1] = Hygroscopicity (DVS), water sorption/desorption at 37° C.; conditions: for DVS (hygroscopicity): water sorption/desorption isotherms at 37° C., 0-95% RH
Method: The hygroscopicity experiments were carried out with a DVS Intrinsic from S.M.S. This technique is designed to accurately measure a sample's change in mass as it sorbs precisely controlled concentrations of water vapors in an air carrier gas. The method used for DVS experiments (at 37° C.) is summarized below. • Equilibrating 10 min at 50% RH • Decreasing to 0% RH in 60 min • Equilibrating 10 min at 0% RH • Increasing to 95% RH in 280 min • Equilibrating 10 min at 95% RH • Decreasing to 50% RH in 100 min • Equilibrating 20 min at 50% RH
(§1) The hygroscopic experiments were carried out with a DVS Intrinsic from S.M.S. This technique is designed to accurately measure a sample's change in mass as it sorbs precisely controlled concentrations of water vapors in an air carrier gas. All the methods used for DVS experiments are summarized below. It should be noticed that the temperature and relative humidity (RH) are pre-set according to the initial temperature and RH.
• Equilibrating 120 min at 50% RH • Decreasing to 0% RH in 60 min • Equilibrating 150 min at 0% RH • Increasing to 95% RH in 200 min • Equilibrating 360 min at 95% RH • Decreasing to 50% RH in 100 min • Equilibrating 150 min at 50% RH
as §1, with “hygroscopicity” for “hygroscopic”, “below, and it” for “below. It”
as §1, with “hygroscopicity” for “hygroscopic”

[2] = Solubility profile of Compound 1 Form III in water, ethanol and methanol; conditions: for solubility: thermodynamic from solid
Method: The solubility of Compound 1 Form III was measured in the following solvents: water, ethanol and methanol. The determination of the solubility profile was performed with a Thermomixer Eppendorf driving the temperature and the mixing. The stock solutions were prepared according to the USP (United States Pharmacopeia), and then about 1 mL of these stock solutions was added to the API in tubes of 2 mL.

[3] = pH solubility profile at 37° C. of Compound 1 Form III
Method: All the buffer solutions were prepared according to the U.S.P namely hydrochloric acid buffer for pH=2.0, acid phthalate buffer for pH=4.0, phosphate buffer for pH=6.0, alkaline borate buffer for pH=8.0, which correspond to the native pH. At the end of the solubility study, the pH of the solutions were controlled again (final pH) to determine any variation. The solubility was measured at 37° C. The maximum concentration limit was set at 100 g/L max to minimize consumption of the tested compound.

[4] = XRPD under temperature and relative humidity; conditions: for XRPD under temperature: impact / new crystalline phase: 25 to 100° C., RH set at 30%; for XRPD under relative humidity: impact / new crystalline phase: RH 10 to 80-90% at 40° C.
Method: Method 1: influence of temperature at ambient RH. RH was set at 30% in order to simulate a RH near from the ambient RH, and the temperature studied were 25-[…]-100° C.
Method 2: influence on RH at 40° C. The RH studied was at 10-30-80%.
These experiments studied the influence of temperature at ambient RH. RH was wet at 30% in order to simulate a RH near from the ambient RH, and the temperatures studied were 25-50-100° C.
These experiments studied the influence on RH at 40° C. The RH studied were 10-30-88%.
Using Method 1, the influence of temperature at ambient RH was studied. RH was set at 30% in order to simulate a RH near from the ambient RH, and the temperatures studied were 25-50-100° C. FIG. 24 provides the XRPD pattern representing the influence of temperature on Compound 1 Form I.
Using Method 2, the influence on RH at 40° C. was studied. The RH studied were 10-30-90%.
Using Method 1, the influence of temperature at ambient RH was studied. RH was set at 30% in order to simulate a RH near from the ambient RH. Temperature studied: 25-50-100° C.
Using Method 2, the influence on RH at 40° C. was studied at 10-30-90%.

[5] = Polymorph screening, cooling experiments (solubility of Form III in screening solvents); conditions: all solvents tested with the exception of dichloromethane, even at high temperature
Method: Solutions of Compound 1 Form III were prepared at respectively 50 and 150 g/L in each solvent. Heat was applied when necessary to get a solution. Once a solution was obtained, the vials were cooled down to 10° C.

CC1=C(O)C(=O)C=C2C1=CC=C1[C@@]2(C)CC[C@@]2(C)[C@@H]3C[C@](C)(C(=O)O)CC[C@]3(C)CC[C@]12C [Compound 1 Form III, 3-hydroxy-9β,13α-dimethyl-2-oxo-24,25,26-trinoroleana-1(10),3,5,7-tetraen-29-oic acid]
Hysteresis observed with the final mass at 50% RH ([1]; DVS, 37° C.): No hysteresis | Mass decrease as RH was lowered to 0% ([1]; DVS, 37° C.): ~0.06% | Mass increase as RH was increased to 95% ([1]; DVS, 37° C.): ~0.09% | Water uptake, water sorption/desorption isotherms ([1]; DVS, 37° C.): < 0.2% | DVS (hygroscopicity) [1]: non-hygroscopic | DVS (hygroscopicity) ([1]; listed as FIII): Not hygroscopic | DVS (hygroscopicity) ([1]; listed as Form III): nonhygroscopicity; also recorded: Non hygroscopic compound | solubility ([2]; 30 °C, water, 10, 30 and 50° C.): < 1 mg/mL | Solubility profile: ethanol (description) ([2]; ethanol): Ethanol: Soluble | Solubility profile: methanol (description) ([2]; methanol): Methanol: Sparingly Soluble | solubility ([2]; organic solvent or mixture, ethanol, 10° C.): 33 to 38 mg/mL (≈ 73.2 to 84.3 mM) | solubility ([2]; organic solvent or mixture, ethanol, 30° C.): 33 to 38 mg/mL (≈ 73.2 to 84.3 mM) | solubility ([2]; organic solvent or mixture, ethanol, 50° C.): 33 to 38 mg/mL (≈ 73.2 to 84.3 mM) | solubility ([2]; organic solvent or mixture, methanol, 10° C.): 27 to 33 mg/mL (≈ 59.9 to 73.2 mM) | solubility ([2]; organic solvent or mixture, methanol, 30° C.): 27 to 33 mg/mL (≈ 59.9 to 73.2 mM) | solubility ([2]; organic solvent or mixture, methanol, 50° C.): 27 to 33 mg/mL (≈ 59.9 to 73.2 mM) | Solubility profile: water (description) ([2]; water): Water: Very slightly soluble | solubility ([3]; USP buffer solutions, aqueous buffer, thermodynamic from solid, USP buffers, native pH 2.0, 4.0, 6.0 and 8.0, read-out: Solubility range): < 1 mg/mL | pH solubility profile, description form ([3]; pH 2.0 to 8.0): very slight solubility; also recorded: Very slightly | pH solubility profile, description form ([3]; pH 2.0 to 8.0, listed as Form III): From pH = 2 to pH = 8: very slightly soluble | XRPD under temperature: impact / new crystalline phase [4]: stable | XRPD under temperature: impact / new crystalline phase ([4]; listed as FIII): =>No new crystalline | XRPD under relative humidity: impact / new crystalline phase [4]: stable | XRPD under relative humidity: impact / new crystalline phase ([4]; listed as FIII): =>No new crystalline | Solubility in the screening solvents [5]: low solubility
